Earlier results on 2 molecules are cited in US6939965B2, “Process of manufacture of 1,3-oxathiolane nucleosides using titanium trichloride mono-isopropoxide” (Gilead Sciences, Inc., priority 1998, dated 2005).

Series [1] concerns HIV. The settings on record: racemic mixture, compared with AZT.
Series [2] deals with HIV.

Molecules are shown by their SMILES.

With `Nc1ccn(C2CSC(CO)O2)c(=O)n1` (racemic) [BCH-189, 2-hydroxymethyl-5-(cytosin-1-yl)-1,3-oxathiolane], in series [1], the “activity against HIV relative to AZT” value was “approximately the sane activity against HIV as AZT”. Take `Nc1nc(=O)n([C@@H]2CS[C@H](CO)O2)cc1F` (relative stereo) [FTC, cis-2-hydroxymethyl-5-(5-fluorocytosin-1-yl)-1,3-oxathiolane]: in series [2], the HIV activity entry is reported as “potent HIV activity”.
